Consider eleven compounds from patent US4438136A, “Prostaglandins” (National Research Development Corporation, priority 1979, dated 1984).

Bounds are passed on as bounds.

One assay concerns the target T1, Rabbit Aorta (Oryctolagus cuniculus, UniProt Q6WQI8).
T1 construct: contraction by 11,9-(epoxymethano)PGH2 (U-46619)
T1 sequence (Q6WQI8 1-233): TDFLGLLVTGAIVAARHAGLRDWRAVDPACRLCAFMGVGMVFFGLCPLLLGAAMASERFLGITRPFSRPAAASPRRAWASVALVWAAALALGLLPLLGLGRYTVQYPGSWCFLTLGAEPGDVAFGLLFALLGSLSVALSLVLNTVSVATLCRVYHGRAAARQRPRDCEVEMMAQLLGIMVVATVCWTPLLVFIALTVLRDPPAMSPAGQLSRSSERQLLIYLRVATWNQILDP
In words: Rabbit Aorta System: antagonism of contraction of aorta strips induced by 11,9-(epoxymethano) PGH2. In kind it is cell-based. The settings on record: for Kb: read-out: AFFINITY CONSTANTS (KB) Rabbit Aorta (converted); for antagonist/agonist character in rabbit aorta strip test: in words. The text has this:
(§1) It is believed that such inhibition is the result of the compounds being thromboxane antagonists and the activity of the compounds is for convenience hereinafter discussed in these terms. […] The related compounds described and claimed in our copending application Ser. No. 431,554 filed Sept. […] Structural features which tend to endow these compounds with a more pure antagonist form of activity are described in that application. It has been found, however, that the compounds of the present invention generally show little tendency to deviate from pure antagonist activity. Activity has also been observed on compounds according to the present invention on guinea pigs tracheal muscle.
(§2) Various of the compounds described in Examples 1 to 3 are tested for biological activity in the human platelet and rabbit aorta systems.
(§3) [B]=molar concentration of compound
Spiral strips of thoracic aorta are suspended in Kreb's-Henseleit solution and aerated with 95% O2 /5% CO2 at 37° C. Tension changes are recorded with a Grass FTO3 force transducer. Initially, cumulative dose response curves to 11,9-(epoxymethano) PGH2 (2×10^-9, 1×10^-8, 5×10^-8 and 2.5×10^-7 M) are obtained. In a second experiment the individual compounds are added 30 mins previous to the addition of the series of agonist doses. Affinity constants are calculated as above.

Assay [1] has as its target T2, Human Platelets (Homo sapiens, UniProt P21731).
T2 construct: Platelet-rich plasma is obtained from fresh, citrated human blood; endogenous in cells; host or cells: human platelets (platelet-rich plasma from citrated blood)
T2 sequence (P21731 1-343): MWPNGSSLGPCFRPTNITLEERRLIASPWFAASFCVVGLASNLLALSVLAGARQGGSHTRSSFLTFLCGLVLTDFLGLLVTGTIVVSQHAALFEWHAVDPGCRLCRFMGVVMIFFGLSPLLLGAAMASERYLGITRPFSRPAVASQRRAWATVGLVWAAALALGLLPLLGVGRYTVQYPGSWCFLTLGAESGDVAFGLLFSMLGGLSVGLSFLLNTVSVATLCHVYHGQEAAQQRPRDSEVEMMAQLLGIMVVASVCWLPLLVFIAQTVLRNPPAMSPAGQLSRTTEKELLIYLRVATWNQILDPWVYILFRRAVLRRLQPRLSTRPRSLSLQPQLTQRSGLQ
The assay can be described thus: Human Platelet System: antagonism of platelet aggregation induced by 11,9-(epoxymethano) PGH2. In kind it is cell-based. The settings on record: for Kb: vs 11,9-epoxymethano PGH2 (1×10^-7 to 5×10^-7 M), compound added 5 minutes before, Gaddum-Schild, read-out: AFFINITY CONSTANTS (KB) Human Platelets (converted); for inhibition of aggregatory activity of 11,9-(epoxymethano) PGH2 / antagonism in platelet test: human platelets in vitro, in words.
Text: as §1, §2
Platelet-rich plasma is obtained from fresh, citrated human blood. Addition of the 11,9-epoxymethano analogue of PGH2 (1×10^-7 to 5×10^-7 M) causes immediate aggregation recorded as an increase in light transmission (600 nm). In a second experiment the individual compounds are added 5 minutes previously to addition of the PGH2 analogue. The dose of the PGH2 analogue added is then increased to a level which gives a similar response to that obtained in the absence of antogonist. The affinity constant, KB, for the compound is calculated according to the Gaddum-Schild Equation (based on Law of Mass Action).
as §3

Assay [2] concerns Human Platelets. The assay can be described thus: Antagonism of ADP aggregatory action on platelets. In kind it is cell-based.
A further assay concerns α-adrenoceptors. In words: Block of contractile action of noradrenaline (α-adrenoceptors). In kind it is cell-based, rabbit. The following applies: in words.
Another assay deals with platelet. In words: Block of aggregatory action of arachidonic acid on platelets. In kind it is cell-based, human. The following applies: in words.
Setting [3] is: vs 11,9-(epoxymethano) PGH2, compound added 30 mins before, Gaddum-Schild.

As usually defined, the Kb is the equilibrium dissociation constant of an antagonist, usually derived from a functional assay. On to `CN(C)c1ccc(C(=O)NN=C[C@H]2[C@@H]3CC[C@@H](C3)[C@@H]2C/C=C\CCCC(=O)O)cc1` (relative stereo), for which, on Rabbit Aorta (setting [3]), the “AFFINITY CONSTANTS (KB) Rabbit Aorta” value was less than 2.5e-05 L/mol. The antagonist equilibrium constant (Kb) on Human Platelets [1] was 10000 nM.

Regarding `COc1ccc(C(=O)NN=C[C@H]2[C@@H]3CC[C@@H](C3)[C@@H]2C/C=C\CCCC(=O)O)cc1` (relative stereo), on Rabbit Aorta (setting [3]), the Kb is 5000 nM.

As to `O=C(O)CCC/C=C\C[C@H]1[C@H]2CC[C@H](C2)[C@@H]1C=NNC(=O)Cc1ccccc1` (relative stereo), the Kb on Rabbit Aorta (setting [3]) was 1490 nM.

Regarding `O=C(O)CCC/C=C\C[C@H]1[C@H]2CC[C@H](C2)[C@@H]1C=NNC(=O)C(c1ccccc1)c1ccccc1` (relative stereo), the Kb was 8330 nM in the assay with Human Platelets [2] (antagonism of ADP, table head gives liters/mole, 5 min); 256 nM on Rabbit Aorta (setting [3]); 1390 nM at Human Platelets [1]. The “antagonism of ADP” value with Human Platelets [2] (in words) is reported as “Slight antagonism of ADP”.

As for `O=C(O)CCC/C=C\C[C@H]1[C@H]2CC[C@H](C2)[C@@H]1C=NNC(=O)CC(c1ccccc1)c1ccccc1` (relative stereo), the figures for the Kb at Rabbit Aorta (setting [3]) and at Human Platelets [1] were 1520 nM and 500 nM, respectively.

On to `O=C(O)CCC/C=C\C[C@H]1[C@H]2CC[C@H](C2)[C@@H]1C=NNC(=O)COc1ccccc1` (relative stereo), for which the results for the Kb at Rabbit Aorta (setting [3]) and on Human Platelets [1] were 2700 nM and 19200 nM, respectively.

With `O=C(O)CCCCCC[C@H]1[C@H]2CC[C@H](C2)[C@@H]1C=NNC(=O)Nc1ccccc1` (relative stereo), the figures for the Kb on Rabbit Aorta (setting [3]) and at Human Platelets [1] were 1200 nM and 1450 nM, respectively.

In the case of `O=C(O)CCC/C=C\C[C@H]1[C@H]2CC[C@H](C2)[C@@H]1C=NNC(=O)c1ccc(F)cc1` (relative stereo) [Example 1, 5-endo-(6'-Caboxyhex-2'Z-enyl)-6-exo-(N-p-fluorobenzoylhydrazonomethyl)-bicyclo[2,2,1]heptane], the “block of contractile action of noradrenaline” value in the assay with α-adrenoceptors is recorded as “do not block the contractile action of noradrenaline”. Also, the “antagonist/agonist character in rabbit aorta strip test” value on Rabbit Aorta is “pure antagonists in the rabbit aorta strip test”. The “block of aggregatory action of arachidonic acid” value in the assay on platelet was “block the aggregatory action of archidonic acid”. Besides, the “inhibition of aggregatory activity of 11,9-(epoxymethano) PGH2 / antagonism in platelet test” value at Human Platelets [1] is recorded as “antagonists in the platelet test”.

For the compound `O=C(O)CCC/C=C\C[C@H]1[C@H]2CC[C@H](C2)[C@@H]1C=NNC(=O)Nc1ccccc1` (relative stereo) [Example 3, 5-endo-(6'-carboxyhex-2'Z-enyl)-6-exo-[N-(phenylcarbamoyl)-hydrazonomethyl]-bicyclo[2,2,1]heptane], in the assay on α-adrenoceptors, the “block of contractile action of noradrenaline” value is given as “do not block the contractile action of noradrenaline”. In addition, the “antagonist/agonist character in rabbit aorta strip test” value on Rabbit Aorta is recorded as “pure antagonists in the rabbit aorta strip test”. Moreover, in the assay on platelet, the “block of aggregatory action of arachidonic acid” value is recorded as “block the aggregatory action of archidonic acid”. The “inhibition of aggregatory activity of 11,9-(epoxymethano) PGH2 / antagonism in platelet test” value against Human Platelets [1] is on record as “antagonists in the platelet test”.

As to `O=C(O)CCC/C=C\C[C@H]1[C@H]2CC[C@H](C2)[C@@H]1C=NNC(=O)c1ccc(F)cc1` (relative stereo) [drawing 24], the Kb is 1280 nM at Rabbit Aorta (setting [3]) and 4760 nM on Human Platelets [1].

Regarding `O=C(O)CCC/C=C\C[C@H]1[C@H]2CC[C@H](C2)[C@@H]1C=NNC(=O)Nc1ccccc1` (relative stereo) [drawing 31], the Kb is 769 nM on Rabbit Aorta (setting [3]) and 1430 nM on Human Platelets [1].
